Assays:
[1] = tested on: Cavia porcellus; assay: Inhibition of LTD4-induced broncho constriction in Guinea pig after intragastrical administration of a dose of 3 mg/kg; format: functional; conditions: po, route intragastric
[2] = tested on: Cavia porcellus; assay: Inhibition of LTD4-induced broncho constriction in Guinea pig after intragastrical administration of a dose of 25 mg/kg; format: functional; conditions: po, route intragastric
[3] = tested on: Cavia porcellus; assay: Tested for the inhibition of LTD4-induced broncho constriction in Guinea pig, injected intraduodenally at a dose of 25 mg/kg; format: functional; conditions: route intraduodenal
[4] = tested on: Cavia porcellus; assay: Inhibition of LTD4-induced broncho constriction in Guinea pig after intragastrical administration of a dose of 0.3 mg/kg; format: functional; conditions: po, route intragastric
[5] = tested on: Cavia porcellus; assay: Inhibition of LTD4-induced broncho constriction in Guinea pig after intragastrical administration of a dose of 1 mg/kg; format: functional; conditions: po, route intragastric
[6] = tested on: Cavia porcellus; assay: Inhibition of LTD4-induced broncho constriction in Guinea pig after intraduodenal administration of a dose of 25 mg/kg; format: functional
[7] = tested on: Cavia porcellus; assay: Tested for the inhibition of LTD4-induced broncho constriction in Guinea pig, injected intraduodenally at a dose of 5 mg/kg; format: functional; conditions: route intraduodenal
[8] = tested on: Rattus norvegicus; assay: Antiinflammatory effect was studied in a rat carrageenan paw edema (CE) assay at 50 mg/kg; format: functional
[9] = target: T1, Cyclooxygenase (Rattus norvegicus, UniProt P35355+Q63921); assay: Concentration for 50% inhibition of A-23187-stimulated radiolabeled 5-HETE and TXB2 synthesis by Prostaglandin G/H synthase; format: protein assay
T1 sequence (P35355 whole entry): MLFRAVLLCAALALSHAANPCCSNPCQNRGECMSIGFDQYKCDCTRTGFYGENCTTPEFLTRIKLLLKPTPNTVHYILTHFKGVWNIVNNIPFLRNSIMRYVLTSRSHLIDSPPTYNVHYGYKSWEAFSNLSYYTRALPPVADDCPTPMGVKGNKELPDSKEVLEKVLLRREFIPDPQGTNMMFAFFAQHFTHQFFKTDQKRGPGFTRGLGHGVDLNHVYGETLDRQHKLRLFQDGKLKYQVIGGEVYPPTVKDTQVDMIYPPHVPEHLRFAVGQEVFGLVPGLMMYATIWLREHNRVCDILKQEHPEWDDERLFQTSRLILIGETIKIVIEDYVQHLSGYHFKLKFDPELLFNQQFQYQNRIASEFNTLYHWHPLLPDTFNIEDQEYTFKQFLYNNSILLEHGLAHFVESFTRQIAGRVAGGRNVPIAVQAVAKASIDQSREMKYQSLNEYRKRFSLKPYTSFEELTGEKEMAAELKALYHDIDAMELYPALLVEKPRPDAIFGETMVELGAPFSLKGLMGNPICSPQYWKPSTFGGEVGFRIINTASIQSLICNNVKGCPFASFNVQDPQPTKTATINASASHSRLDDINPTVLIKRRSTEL
T1 sequence (Q63921 whole entry): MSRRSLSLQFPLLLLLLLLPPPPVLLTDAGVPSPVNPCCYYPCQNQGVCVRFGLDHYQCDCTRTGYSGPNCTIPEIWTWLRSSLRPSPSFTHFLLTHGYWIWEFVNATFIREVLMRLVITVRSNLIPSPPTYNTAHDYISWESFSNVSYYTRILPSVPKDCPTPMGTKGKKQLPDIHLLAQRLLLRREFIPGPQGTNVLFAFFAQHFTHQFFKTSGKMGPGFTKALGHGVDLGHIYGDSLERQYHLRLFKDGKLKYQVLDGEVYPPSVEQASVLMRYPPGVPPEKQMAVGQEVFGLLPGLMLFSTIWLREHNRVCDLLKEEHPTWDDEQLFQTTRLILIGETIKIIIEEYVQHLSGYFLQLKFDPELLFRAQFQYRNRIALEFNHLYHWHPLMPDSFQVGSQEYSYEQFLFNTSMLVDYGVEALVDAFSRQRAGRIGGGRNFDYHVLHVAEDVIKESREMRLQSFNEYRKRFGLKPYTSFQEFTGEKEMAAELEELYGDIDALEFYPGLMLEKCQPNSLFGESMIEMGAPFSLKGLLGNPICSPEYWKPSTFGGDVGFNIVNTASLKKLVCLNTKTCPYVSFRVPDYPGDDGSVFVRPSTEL

[10] = target: T2, Polyunsaturated fatty acid 5-lipoxygenase (Rattus norvegicus, UniProt P12527); assay: Concentration for 50% inhibition of A-23187-stimulated radiolabeled 5-HETE and TXB2 synthesis by PMN 5-lipoxygenase; format: functional
T2 sequence (P12527 whole entry): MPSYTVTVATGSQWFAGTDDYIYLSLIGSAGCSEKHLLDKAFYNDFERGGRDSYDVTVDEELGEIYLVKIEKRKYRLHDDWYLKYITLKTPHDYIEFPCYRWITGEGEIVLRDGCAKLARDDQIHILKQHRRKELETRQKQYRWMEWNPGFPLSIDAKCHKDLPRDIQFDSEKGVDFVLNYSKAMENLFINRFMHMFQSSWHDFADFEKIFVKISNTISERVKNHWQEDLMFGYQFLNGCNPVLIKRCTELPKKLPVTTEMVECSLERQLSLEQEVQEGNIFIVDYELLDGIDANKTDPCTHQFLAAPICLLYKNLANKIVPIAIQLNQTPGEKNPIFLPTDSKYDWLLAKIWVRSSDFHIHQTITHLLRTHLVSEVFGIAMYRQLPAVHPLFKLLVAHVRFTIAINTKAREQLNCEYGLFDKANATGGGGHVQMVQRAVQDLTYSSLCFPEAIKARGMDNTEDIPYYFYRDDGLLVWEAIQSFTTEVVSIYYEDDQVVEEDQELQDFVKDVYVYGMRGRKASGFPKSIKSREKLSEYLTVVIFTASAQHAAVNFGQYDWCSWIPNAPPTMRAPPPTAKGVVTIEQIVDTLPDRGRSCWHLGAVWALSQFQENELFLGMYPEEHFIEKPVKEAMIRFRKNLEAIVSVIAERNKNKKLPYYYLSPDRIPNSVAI

[11] = tested on: Cavia porcellus; assay: In vitro inhibition of ovalbumin-induced bronchoconstriction after intragastrical administration 120 min before agonist into isolated guinea pig trachea; format: functional; conditions: po
[12] = tested on: Cavia porcellus; assay: In vitro for inhibition of ovalbumin-induced bronchoconstriction in isolated guinea pig trachea by injecting intraduodenally; format: functional; conditions: intraduodenal
[13] = tested on: Cavia porcellus; assay: Dissociation constant was determined In vitro in isolated guinea pig trachea after intraduodenal administration; format: ADME, organism-based; conditions: in vivo, other
[14] = tested on: Cavia porcellus; assay: Examined in vitro for LTD4-induced bronchoconstriction in isolated guinea pig trachea by injecting intraduodenally; format: functional; conditions: intraduodenal
[15] = tested on: Cavia porcellus; assay: In vitro inhibition of LTD4-induced bronchoconstriction after intragastrical administration 120 min before agonist into isolated guinea pig trachea; format: functional; conditions: po

## CONC(=O)CCc1cccc(OCc2ccc3ccccc3n2)c1
[1]
  inhibition in vivo at 3 mg/kg: 5%
[2]
  inhibition in vivo at 25 mg/kg: 86%

## O=C(NO)c1cccc(OCc2ccc3ccccc3n2)c1
[3]
  inhibition in vivo at 25 mg/kg: < 33%

## c1cc(Cc2nnn[nH]2)cc(OCc2ncc3ccccc3n2)c1
[3]
  inhibition in vivo at 25 mg/kg: < 77%

## c1ccc(-c2nn[nH]n2)c(OCc2ccc3ccccc3n2)c1
[3]
  inhibition in vivo at 25 mg/kg: < 31%

## Cc1ccc(S(=O)(=O)NC(=O)Cc2cccc(OCc3ccc4ccccc4n3)c2)cc1
[3]
  inhibition in vivo at 25 mg/kg: < 75%
[2]
  inhibition in vivo at 25 mg/kg: < 16%

## O=C(NS(=O)(=O)c1ccccc1)c1cccc(OCc2ccc3ccccc3n2)c1
[4]
  inhibition in vivo at 0.3 mg/kg: < 12%
[5]
  inhibition in vivo at 1 mg/kg: < 82%

## CONC(=O)Cc1cccc(OCc2nc3ccccc3n2C)c1
[2]
  inhibition in vivo at 25 mg/kg: < 58%

## O=C(O)CCc1cccc(OCc2ccc3ccccc3n2)c1
[2]
  inhibition in vivo at 25 mg/kg: < 75%

## CON(C)C(=O)Cc1cccc(OCc2ccc3ccccc3n2)c1
[2]
  inhibition in vivo at 25 mg/kg: 93%

## O=C(NOCc1ccccc1)c1cccc(OCc2ccc3ccccc3n2)c1
[2]
  inhibition in vivo at 25 mg/kg: < -14%
[6]
  inhibition in vivo at 25 mg/kg: < 71%

## c1ccc2nc(COc3ccc(-c4nn[nH]n4)cc3)ccc2c1
[7]
  inhibition in vivo at 5 mg/kg: < 28%

## CC(C)Cc1ccc(C(C)C(=O)O)cc1 (stereo not drawn) [IBUPROFEN]
[8]
  inhibition in vivo at 50 mg/kg: 63%

## O=S(=O)(Nc1cccc(OCc2ccc3ccccc3n2)c1)C(F)(F)F [RITOLUKAST]
[9]
  IC50: 9100 nM
[10]
  IC50: 2000 nM
[11]
  ED50: 0.6 mg/kg
[12]
  ED50: 3 mg/kg
[13]
  pKb: 7.7
[14]
  ED50: 0.3 mg/kg
[15]
  ED50: 0.1 mg/kg
